The values below come from patent US11713339B2, “Macrocyclization of peptidomimetics” (UNIVERSITY OF WARWICK, priority 2018, dated 2023).

Several values for one entry are separate records, joined by “and”; a condition that tells them apart may be missing. Equal values may be shown once. Read-outs that look alike come from different tables or passages of the source.

The conditions of data set [1]: 25.0 °C.
For data set [2] the following is noted: amide bond, DMF, 25.0 °C.
For data set [3] the following is noted: 25.0 °C. This is another data set of the same source.
Data set [4] deals with T1, porcine Aminopeptidase N (APN) (Sus scrofa, UniProt P15145).
T1 construct: microsomal aminopeptidase from porcine kidney (pAPN, Sigma Aldrich) (18 units/mg protein); purchased Sigma Aldrich; host or cells: porcine kidney (tissue-derived enzyme preparation)
T1 sequence (P15145 1-963): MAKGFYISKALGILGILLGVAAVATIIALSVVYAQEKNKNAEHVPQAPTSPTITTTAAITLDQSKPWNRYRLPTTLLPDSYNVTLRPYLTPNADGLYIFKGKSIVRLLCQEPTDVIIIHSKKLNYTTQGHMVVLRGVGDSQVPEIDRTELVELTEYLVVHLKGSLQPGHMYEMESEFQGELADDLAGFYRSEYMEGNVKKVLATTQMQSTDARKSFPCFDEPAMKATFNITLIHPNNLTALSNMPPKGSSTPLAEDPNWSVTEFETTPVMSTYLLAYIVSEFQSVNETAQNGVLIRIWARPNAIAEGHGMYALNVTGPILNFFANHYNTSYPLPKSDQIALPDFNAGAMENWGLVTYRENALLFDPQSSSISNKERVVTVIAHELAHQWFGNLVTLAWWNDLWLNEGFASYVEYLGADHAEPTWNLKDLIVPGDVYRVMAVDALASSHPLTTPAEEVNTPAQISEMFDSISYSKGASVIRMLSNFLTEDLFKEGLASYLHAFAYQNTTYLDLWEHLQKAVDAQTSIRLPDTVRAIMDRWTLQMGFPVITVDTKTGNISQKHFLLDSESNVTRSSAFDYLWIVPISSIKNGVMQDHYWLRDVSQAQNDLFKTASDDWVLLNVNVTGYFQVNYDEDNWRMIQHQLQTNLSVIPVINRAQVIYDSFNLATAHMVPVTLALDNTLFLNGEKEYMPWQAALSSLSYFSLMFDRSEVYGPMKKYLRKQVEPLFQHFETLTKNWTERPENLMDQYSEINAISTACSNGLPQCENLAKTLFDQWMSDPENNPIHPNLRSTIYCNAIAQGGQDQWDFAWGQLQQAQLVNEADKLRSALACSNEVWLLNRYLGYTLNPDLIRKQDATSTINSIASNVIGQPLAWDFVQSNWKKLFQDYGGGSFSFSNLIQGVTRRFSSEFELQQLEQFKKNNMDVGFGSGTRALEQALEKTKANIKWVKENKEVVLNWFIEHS
The data set is described as follows: in vitro inhibition assay of aminopeptidase N (spectrophotometric, L-leucine-p-nitroanilide substrate). The settings on record: microsomal aminopeptidase from porcine kidney (pAPN), L-leucine-p-nitroanilide 250 μM, PBS pH 7.2, 37° C., 1 hour, UV 405 nm. Type of data set: biochemical.
Procedure: IC50 values were calculated by following the formation of p-nitroaniline. Formation of p-nitroaniline was monitored by measurement of the UV absorption at 405 nm on a Hidex Sense plate reader. The assay was performed in a 96-well plate in PBS buffer (pH 7.2, 1.47 mM KH2PO4, 7.8 mM Na2HPO4, 137 mM NaCl, 2.7 mM KCl, 1.8 mM CaCl2, 1.8 mM MgCl2) at 37° C. with a total volume of 100 μL. […] The peptides were incubated with the enzyme (1.0 μg/mL) for 5 min. before a solution of L-leucine-p-nitroanilide was added with a final concentration of 250 μM. The plate was incubated at 37° C. for 1 hour before the p-nitroaniline was detected. […] For the calculation of the IC50 values log of the concentration was plotted against the UV absorption in GraphPad Prism 5 using nonlinear regression (variable slope (four parameters) with interpolation) for analysis.

[5] abbreviates: amide bond, 12-membered ring, DEPBT/DIPEA, DMF, 1.0 mM.

Regarding “Cyclo-(Phe-Glu(^tBu)-GAz(Boc)-Thr(^tBu)-Gly)”, the ring closure, isolated yield in data set [1] (amide bond, 15-membered ring, DEPBT/DIPEA, DMF, 5.0 mM) worked out at 73%.
With Cyclo(Trp-Leu-GOx-Gly), in data set [1] (amide bond, 12-membered ring, DEPBT/DIEA, DMF, 1.0 mM), the ring closure, isolated yield came out at 65%.
In data set [2] (from CC(C)C[C@H](NC(=O)[C@@H](N)Cc1c[nH]c2ccccc12)C(=O)NCC(=O)NCC(=O)O, PyBOP/DIPEA, 1.0 mM, 48.0 h), `CC(C)C[C@@H]1NC(=O)[C@H](Cc2c[nH]c3ccccc23)NC(=O)CNC(=O)CNC1=O` [Cyclo(Trp-Leu-Gly-Gly)] registered a ring closure, yield of all isomers of 15%.
The compound Cyclo(Boc-Cys-GOx-Cys-OtBu) returned a ring closure, isolated yield in data set [1] (disulfide bond, 11-membered ring, I2, MeOH, 5.0 mM) of 64%.
`C[C@@H](OC(C)(C)C)[C@@H]1NC2(CNC(=O)[C@H](CCC(=O)OC(C)(C)C)NC(=O)[C@H](Cc3ccccc3)NC(=O)CNC1=O)CN(C(=O)OC(C)(C)C)C2` [Cyclo-(Phe-Glu(^tBu)-GAz(Boc)-Thr(^tBu)-Gly)] gave a ring closure, yield of all isomers in data set [2] (from C[C@@H](OC(C)(C)C)[C@H](NC1(CNC(=O)[C@H](CCC(=O)OC(C)(C)C)NC(=O)[C@@H](N)Cc2ccccc2)CN(C(=O)OC(C)(C)C)C1)C(=O)NCC(=O)O, DEPBT, 5.0 mM, 68.0 h) of 73%.
For the compound `CC(C)C[C@@H]1NC(=O)[C@H](Cc2ccc(O)cc2)NC(=O)[C@H](C)NC2(CNC(=O)[C@H](C)NC1=O)COC2` [Cyclo(Ala-GOx-Ala-Tyr-Leu)], the ring closure, yield of all isomers in data set [2] (from CC(C)C[C@H](NC(=O)[C@H](Cc1ccc(O)cc1)NC(=O)[C@H](C)NC1(CNC(=O)[C@H](C)N)COC1)C(=O)O, DEPBT/DIPEA, 1.0 mM, 24.0 h) came out at 54%.
With `CC(C)C[C@@H]1NC(=O)[C@H](Cc2c[nH]c3ccccc23)NC(=O)CNC2(CNC1=O)COC2` [Cyclo(Trp-Leu-GOx-Gly)], the ring closure, yield of all isomers in data set [2] (from CC(C)C[C@H](NC(=O)[C@@H](N)Cc1c[nH]c2ccccc12)C(=O)NCC1(NCC(=O)O)COC1, DEPBT/DIPEA, 1.0 mM, 48.0 h) was determined as 65%.
For `CC(C)C[C@@H]1NC(=O)[C@H](Cc2cn(C(=O)OC(C)(C)C)c3ccccc23)NC(=O)CNC2(CNC1=O)COC2` [Cyclo(Leu-GOx-Gly-Trp(Boc))], the ring closure, yield of all isomers in data set [2] (from CC(C)C[C@H](N)C(=O)NCC1(NCC(=O)N[C@@H](Cc2cn(C(=O)OC(C)(C)C)c3ccccc23)C(=O)O)COC1, DEPBT, 1.0 mM, 64.0 h, 6 steps) came to 39%.
Consider Cyclo-((D)Pro-Leu-GAz(Boc)-Gly), for which, in data set [1] (setting [5]), the ring closure, isolated yield was determined as 79%.
In data set [3] (amide bond, 15-membered ring, DEPBT/DIPEA, DMF, 1.0 mM, with chain assembly), Cyclo(Ala-Trp-GOx-Gly-Leu) returned a ring closure, yield after HPLC of 13%.
In data set [2] (from CC(C)C[C@H](NC(=O)[C@@H](N)Cc1c[nH]c2ccccc12)C(=O)N[C@@H](C)C1(NCC(=O)O)COC1, DEPBT, 1.0 mM, 48.0 h), `CC(C)C[C@@H]1NC(=O)[C@H](Cc2c[nH]c3ccccc23)NC(=O)CNC2(COC2)[C@H](C)NC1=O` [Cyclo(Trp-Leu-AOx-Gly)] gave a ring closure, yield of all isomers of 50%.
Compound Cyclo(Leu-GOx-Gly-Trp(Boc)) returned a ring closure, isolated yield in data set [1] (amide bond, 12-membered ring, DEPBT/DIPEA, DMF, 1.0 mM, with chain assembly) of 39%.
Regarding `CC(C)C[C@@H]1NC(=O)[C@H](Cc2ccc(O)cc2)NC(=O)[C@H](C)NC(=O)CNC(=O)[C@H](C)NC1=O` [Cyclo(Ala-Gly-Ala-Tyr-Leu)], the ring closure, yield of all isomers in data set [2] (from CC(C)C[C@H](NC(=O)[C@H](Cc1ccc(O)cc1)NC(=O)[C@H](C)NC(=O)CNC(=O)[C@H](C)N)C(=O)O, DEPBT/DIPEA, 1.0 mM, 24.0 h) worked out at 42%.
In data set [2] (from CC(C)C[C@H](N)C(=O)N[C@@H](Cc1ccc(OC(C)(C)C)cc1)C(=O)N[C@H](C(=O)NCC1(N[C@H](C(=O)N[C@@H](Cc2ccccc2)C(=O)O)[C@@H](C)OC(C)(C)C)CN(C(=O)OC(C)(C)C)C1)C(C)C, DEPBT, 5.0 mM, 48.0 h), `CC(C)C[C@@H]1NC(=O)[C@H](Cc2ccccc2)NC(=O)[C@H]([C@@H](C)OC(C)(C)C)NC2(CNC(=O)[C@H](C(C)C)NC(=O)[C@H](Cc3ccc(OC(C)(C)C)cc3)NC1=O)CN(C(=O)OC(C)(C)C)C2` [Cyclo-(Leu-Tyr(^tBu)-Val-GAz(Boc)-Thr(^tBu)-Phe)] showed a ring closure, yield of all isomers of 57%.
As for Cyclo(Trp-Leu-Gly-Gly), in data set [1] (amide bond, 12-membered ring, PyBOP/DIEA, DMF, 1.0 mM), the ring closure, isolated yield is 15%.
Take `N=C(N)NCCC[C@@H]1NC2(CNC(=O)[C@H](CC(N)=O)NC(=O)[C@@H](N)CSSC[C@@H](C(=O)O)NC1=O)COC2` [Compound 12, Cyclo(H-CVs-Asn-GOx-Arg-CVs-OH)]: inhibition in data set [4] was half-maximal at 175 µM (IC50).
Consider Cyclo(Trp-Leu-AOx-Gly), for which the ring closure, isolated yield in data set [1] (setting [5]) was 49% and 50%.
Take Cyclo(Ala-GOx-Ala-Tyr-Leu): in data set [1] (amide bond, 15-membered ring, DEPBT/DIEA, DMF, 1.0 mM), the ring closure, isolated yield came to 54%.
In data set [3] (amide bond, 21-membered ring, DEPBT/DIPEA, DMF, 1.0 mM, with chain assembly), Cyclo(Ser-Met-Ala-Trp-GOx-Gly-Leu) registered a ring closure, yield after HPLC of 13%.
In the case of Cyclo(H-CVs-Asn-GOx-Arg-CVs-OH), the ring closure, yield after HPLC in data set [3] (disulfide bond, 17-membered ring, I2, MeOH, 10.0 mM, 2 steps) amounted to 32%.
Consider Cyclo(Met-Ala-Trp-GOx-Gly-Leu), for which the ring closure, yield after HPLC in data set [3] (amide bond, 18-membered ring, DEPBT/DIPEA, DMF, 1.0 mM, with chain assembly) is 7%.
Turning to “Cyclo-(Leu-Tyr(^tBu)-Val-GAz(Boc)-Thr(^tBu)-Phe)”, the ring closure, isolated yield in data set [1] (amide bond, 18-membered ring, DEPBT/DIPEA, DMF, 5.0 mM) worked out at 57%.
In data set [1] (amide bond, 15-membered ring, DEPBT/DIPEA, DMF, 1.0 mM), Cyclo(Ala-Gly-Ala-Tyr-Leu) registered a ring closure, isolated yield of 42%.
